In the supplement of paper PMC11061612:

Tests used:
Assay in all cases: Bliss excess, mean over the matrix (fraction); higher = more synergy
[1] = system: BL-41 (Burkitt's Lymphoma)
Method in brief: (§1)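 Cell lines in DMEM/F12 or RPMI with 10% FBS were plated in 1536-well plates, held 24 hours at 37°C, 5% CO2, then given two-drug dose matrices for 72 hours (DMSO typically 0.2%). Viability was read by CellTiter-Glo 2.0 luminescence and scaled as inhibition from 0 (vehicle wells) to 1 (blank wells). Combination Emax is the second-highest inhibition in the matrix; Bliss excess is observed combination effect minus expected EA + EB − EA·EB, EA and EB being single-agent effects.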

[2] = system: CAMA-1 (Breast Carcinoma)
Method in brief: as §1

[3] = system: DiFi (Colorectal Carcinoma)
Method in brief: as §1

ES8 (Ewing's Sarcoma) = system: ES8 (Ewing's Sarcoma)
Method in brief: as §1

[4] = system: EVSA-T (Breast Carcinoma)
Method in brief: as §1

[5] = system: HDQ-P1 (Breast Carcinoma)
Method in brief: as §1

[6] = system: KYSE-180 (Esophageal Squamous Cell Carcinoma)
Method in brief: as §1

MEL-JUSO (Melanoma) = system: MEL-JUSO (Melanoma)
Method in brief: as §1

[7] = system: MFM-223 (Breast Carcinoma)
Method in brief: as §1

[8] = system: MKN28 (Gastric Carcinoma)
Method in brief: as §1

[9] = system: MS751 (Cervical Carcinoma)
Method in brief: as §1

[10] = system: NCI-H1792 (Lung Adenocarcinoma)
Method in brief: as §1

[11] = system: NCI-H847 (Small Cell Lung Carcinoma)
Method in brief: as §1

[12] = system: P12-ICHIKAWA (T-Lymphoblastic Leukemia)
Method in brief: as §1

[13] = system: SU-DHL-8 (B-Cell Non-Hodgkin's Lymphoma)
Method in brief: as §1

[14] = system: SW1417 (Colorectal Carcinoma)
Method in brief: as §1

TC-71 (Ewing's Sarcoma) = system: TC-71 (Ewing's Sarcoma)
Method in brief: as §1

[15] = system: TE-6 (Esophageal Squamous Cell Carcinoma)
Method in brief: as §1

U251 (Low Grade Glioma) = system: U251 (Low Grade Glioma)
Method in brief: as §1

WIL2-NS (Non-Cancerous) = system: WIL2-NS (Non-Cancerous)
Method in brief: as §1

Structure (SMILES)	Bliss excess [1]	Bliss excess [2]	Bliss excess [3]	Bliss excess (ES8 (Ewing's Sarcoma))	Bliss excess [4]	Bliss excess [5]	Bliss excess [6]	Bliss excess (MEL-JUSO (Melanoma))	Bliss excess [7]	Bliss excess [8]	Bliss excess [9]	Bliss excess [10]	Bliss excess [11]	Bliss excess [12]	Bliss excess [13]	Bliss excess [14]	Bliss excess (TC-71 (Ewing's Sarcoma))	Bliss excess [15]	Bliss excess (U251 (Low Grade Glioma))	Bliss excess (WIL2-NS (Non-Cancerous))
CC1(C)CCC(CN2CCN(c3ccc(C(=O)NS(=O)(=O)c4ccc(NCC5CCOCC5)c([N+](=O)[O-])c4)c(Oc4cnc5[nH]ccc5c4)c3)CC2)=C(c2ccc(Cl)cc2)C1 [Venetoclax] + CN(C)CCCOc1ccc(-c2ccc3ncc4c(c3c2)n(C2CCOCC2)c(=O)n4C)cn1 [AZD0156] (first compound max 1 µM, 7x7, partner max 1 µM)	0.0008	-0.0161	0.0216	0.0212	-0.0005	-0.0292	-0.0128	-0.0128	-0.0313	0.0042	0.0165	0.0133	0.037	0.0509	-0.0201	-0.0332	-0.0022	0.0055	-0.026	-0.0296
CC1(C)CCC(CN2CCN(c3ccc(C(=O)NS(=O)(=O)c4ccc(NCC5CCOCC5)c([N+](=O)[O-])c4)c(Oc4cnc5[nH]ccc5c4)c3)CC2)=C(c2ccc(Cl)cc2)C1 [Venetoclax] + COc1cc(Nc2ncc3c(n2)-c2ccc(Cl)cc2C(c2c(F)cccc2OC)=NC3)ccc1C(=O)O [Alisertib] (first compound max 1 µM, 7x7, partner max 10 µM)	-0.0436	-0.0072	0.0661	-0.104	0.0434	-0.0185	0.0114	-0.0463	-0.0077	-0.0541	0.0342	0.0603	0.0304	-0.0398	-0.0869	-0.0705	0.0868	0.0047	0.0027	-0.0522
CC1(C)CCC(CN2CCN(c3ccc(C(=O)NS(=O)(=O)c4ccc(NCC5CCOCC5)c([N+](=O)[O-])c4)c(Oc4cnc5[nH]ccc5c4)c3)CC2)=C(c2ccc(Cl)cc2)C1 [Venetoclax] + C[C@@H]1COCCN1C2=NC(=NC(=C2)C3(CC3)[S@](=N)(=O)C)C4=C5C=CNC5=NC=C4 [AZD6738] (first compound max 1 µM, 7x7, partner max 10 µM)	0.0001	-0.105	-0.0183	0.004	0.0144	-0.0327	-0.0173	-0.013	-0.0604	-0.009	0.0094	-0.018	0.0082	0.0418	-0.0176	-0.0247	-0.0299	-0.0127	-0.0405	-0.0346
CC1(C)CCC(CN2CCN(c3ccc(C(=O)NS(=O)(=O)c4ccc(NCC5CCOCC5)c([N+](=O)[O-])c4)c(Oc4cnc5[nH]ccc5c4)c3)CC2)=C(c2ccc(Cl)cc2)C1 [Venetoclax] + C[C@@H](Nc1cc(F)cc(F)c1)c1cc(C(=O)N(C)C)cc2c(=O)cc(N3CCOCC3)oc12 [AZD8186] (first compound max 1 µM, 7x7, partner max 3 µM)	0.0218	-0.0706	-0.021	-0.0777	0.0269	-0.0215	-0.0031	-0.0487	-0.0187	-0.0248	0.006	-0.035	0.106	-0.0097	-0.041	-0.0747	-0.0381	-0.04	-0.0431	-0.0168
CC1(C)CCC(CN2CCN(c3ccc(C(=O)NS(=O)(=O)c4ccc(NCC5CCOCC5)c([N+](=O)[O-])c4)c(Oc4cnc5[nH]ccc5c4)c3)CC2)=C(c2ccc(Cl)cc2)C1 [Venetoclax] + Cc1cc2ncnn2cc1Nc1ncc2c(n1)n(C1CCOCC1)c(=O)n2C [AZD7648] (first compound max 1 µM, 7x7, partner max 10 µM)	-0.0007	-0.0266	-0.0389	-0.0817	-0.0394	-0.0288	0.0053	-0.0235	-0.0672	-0.011	0.003	-0.0591	0.0002	0.0424	-0.0318	-0.0705	-0.0333	-0.0041	-0.0719	-0.0684
CC1(C)CCC(CN2CCN(c3ccc(C(=O)NS(=O)(=O)c4ccc(NCC5CCOCC5)c([N+](=O)[O-])c4)c(Oc4cnc5[nH]ccc5c4)c3)CC2)=C(c2ccc(Cl)cc2)C1 [Venetoclax] + Cn1cnc2c(F)c(Nc3ccc(Br)cc3Cl)c(C(=O)NOCCO)cc21 [Selumetinib] (first compound max 1 µM, 7x7, partner max 3 µM)	0.0065	-0.0332	-0.0967	-0.0411	-0.017	-0.0377	-0.0128	-0.0481	-0.006	-0.0012	0.0072	0	-0.0428	0.0233	-0.0738	-0.0165	-0.0255	0.0203	-0.0521	-0.0318
